In patent US7601856B2 (Wyeth, priority 2006, dated 2009):

The compounds below were run on isolated rat bladder strips (assay: Inhibition of contractions of isolated rat bladder strips). Conditions: 0.5 h.
Method: The compounds of the examples were tested to determine their ability to inhibit contractions of isolated rat bladder strips. See Foster, C. […] Malmgren, A. et al. J.Urol.
Male Sprague-Dawley rats (150-200 g) were obtained from ACE animal suppliers. Animals were allowed free access to food and water.
Animals were euthanized by CO2 asphyxiation followed by a bilateral thoracotomy. […] The bladder was opened and then cut into strips 1-2 mm in width and 7-10 mm in length. The strips were subsequently suspended in a 10 ml tissue bath under an initial resting tension of 1.5 g. The strips were held in place by two surgical clips one of which was attached to a fixed hook while the other was attached to an isometric force transducer. […] The carbachol was then washed out and the tissue allowed to relax to its resting level of activity. Following a further 30 minute period of recovery an additional 15 mM KCl were introduced into the tissue bath. […] Following stabilization of this enhanced level of contractile activity, incremental increases in the concentration of test compound or vehicle were introduced into the tissue bath. Contractile activity was measured for each compound or vehicle concentration during the last minute of a 30 minute challenge.
Isometric force developed by the bladder strips was measured using a force transducer and recorded on a polygraph. Contractile activity was assessed by measuring either the average amplitude of the contractions (baseline to peak force) occurring during a one minute period or, preferably, by integrating the contractile activity with respect to time (one minute measuring period).
The percentage inhibition of contractile activity evoked by each concentration of a given test compounds was used to generate a concentration-response curve.

SMILES | IC50 [µM]
O=C(CCl)Nc1ccc2oc3c(c2c1)CCCCCC3 [Example 79, 2-CHLORO-N-6,7,8,9,10,11-HEXAHYDROBENZO[B]CYCLOOCTA[D]FURAN-2-YLACETAMIDE] | 0.2 to 0.4
O=C(CN1CCOCC1)Nc1ccc2oc3c(c2c1)CCCCC3 [Example 40, 2-MORPHOLIN-4-YL-N-7,8,9,10-TETRAHYDRO-6H-BENZO[b]CYCLOHEPTA[D]FURAN-2-YLACETAMIDE] | 1 to 3
O=C(CN1CCN(c2ncccn2)CC1)Nc1ccc2oc3c(c2c1)CCCCC3 [Example 50, 2-(4-PYRIMIDIN-2-YLPIPERAZIN-1-YL)-N-7,8,9,10-TETRAHYDRO-6H-BENZO[B]CYCLOHEPTA[D]FURAN-2-YLACETAMIDE] | 3 to 5

Same assay, conditions: 0.5 h, concentration eliciting 50% inhibition of pre-drug contractile activity, strips stimulated with additional 15 mM KCl, 30 minute challenge per concentration, read-out: IC50

SMILES | IC50 [µM]
CC(C)(C)OC(=O)N1CCC[C@H]1C(=O)Nc1ccc2oc3c(c2c1)CCCCC3 [Example 54, TERT-BUTYL (2S)-2-[(7,8,9,10-TETRAHYDRO-6H-BENZO[B]CYCLOHEPTA[D]FURAN-2-YLAMINO)CARBONYL]PYRROLIDINE-1-CARBOXYLATE] | 6 to 8
CCCC(=O)Nc1ccc2oc3c(c2c1)CCCC3 [Example 10, N-(6,7,8,9-TETRAHYDRO-DIBENZOFURAN-2-YL)-BUTYRAMIDE] | 10 to 15
O=C(Nc1ccc2oc3c(c2c1)CCCCCC3)N1CCOCC1 [Example 86, N-(6,7,8,9,10,11-HEXAHYDROBENZO[B]CYCLOOCTA[D]FURAN-2-YL)MORPHOLINE-4-CARBOXAMIDE] | 7 to 9
CCCCCC(=O)Nc1ccc2oc3c(c2c1)CCCCC3 [Example 35, N-(7,8,9,10-TETRAHYDRO-6H-BENZO[B]CYCLOHEPTA[D]FURAN-2-YL)HEXANAMIDE] | 6 to 9

Same assay, conditions: maximum percentage inhibition of contractile activity, 30 μM, strips stimulated with additional 15 mM KCl, read-out: % Inhibition of Contractility @ 30 μM

SMILES | inhibition at 30 µM [%]
CC(C)OC(=O)Nc1ccc2oc3c(c2c1)CCCCCC3 [Example 88, ISOPROPYL 6,7,8,9,10,11-HEXAHYDROBENZO[B]CYCLOOCTA[D]FURAN-2-YLCARBAMATE] | 20 to 30
O=C(Nc1ccc2oc3c(c2c1)CCCCC3)c1ccc(C(F)(F)F)cc1 [Example 38, N-7,8,9,10-TETRAHYDRO-6H-BENZO[B]CYCLOHEPTA[D]FURAN-2-yl-4-(TRIFLUOROMETHYL)BENZAMIDE] | 5 to 10
O=C(Nc1ccc2oc3c(c2c1)CCCC3)c1ccc(Cl)cc1 [Example 17, 4-CHLORO-N-(6,7,8,9-TETRAHYDRO-DIBENZOFURAN-2-YL)-BENZAMIDE] | 25 to 30
CN(C)C(=O)Nc1ccc2oc3c(c2c1)CCCCCC3 [Example 87, N′-(6,7,8,9,10,11-HEXAHYDROBENZO[B]CYCLOOCTA[D]FURAN-2-YL)-N,N-DIMETHYLUREA] | 25 to 35
C[C@H](NC(=O)[C@H](Cc1ccccc1)NC(=O)OCc1ccccc1)C(=O)Nc1ccc2oc3c(c2c1)CCCCC3 [Example 58, N-[(BENZYLOXY)CARBONYL]-L-PHENYLALANYL-N^1-7,8,9,10-TETRAHYDRO-6H-BENZO[B]CYCLOHEPTA[D]FURAN-2-YL-L-ALANINAMIDE] | 30 to 40
O=C(CCC1CCCC1)Nc1ccc2oc3c(c2c1)CCCCCC3 [Example 70, 3-CYCLOPENTYL-N-(6,7,8,9,10,11-HEXAHYDROBENZO[B]CYCLOOCTA[D]FURAN-2-YL)PROPANAMIDE] | 15 to 30

Same assay, conditions: read-out: % Inhibition of Contractility @ 30 μM

SMILES | inhibition at 30 µM [%]
CN(CCc1ccccn1)CC(=O)Nc1ccc2oc3c(c2c1)CCCCC3 [Example 42, N^2-METHYL-N^2-(2-PYRIDIN-2-YLETHYL)-N^1-7,8,9,10-TETRAHYDRO-6H-BENZO[B]CYCLOHEPTA[D]FURAN-2-YLGLYCINAMIDE] | 30 to 40
O=C(Cc1cccs1)Nc1ccc2oc3c(c2c1)CCCCC3 [Example 37, N-(7,8,9,10-TETRAHYDRO-6H-BENZO[B]CYCLOHEPTA[D]FURAN-2-YL)-2-THIEN-2-YLACETAMIDE] | 20 to 40
CCCCC(=O)Nc1ccc2oc3c(c2c1)CCCCCC3 [Example 81, N-6,7,8,9,10,11-HEXAHYDROBENZO[B]CYCLOOCTA[D]FURAN-2-YLPENTANAMIDE] | 10 to 30
NCC(=O)Nc1ccc2oc3c(c2c1)CCCCC3 [Example 52, N^1-7,8,9,10-TETRAHYDRO-6H-BENZO[B]CYCLOHEPTA[D]FURAN-2-YLGLYCINAMIDE] | 20 to 30
